pIC50: −log10 of the molar value. Where two headings read alike, the source gives them in different places.
Key:
HCV replicon 1AQ30D = assay: Cell-based HCV Replicon Assay B, replicon 1AQ30D; conditions: for IC50: Hepatitis C virus, read-out: 1A Q30D IC50 (nM), replicon 1AQ30D; for pIC50: read-out: 1A Q30D IC50, replicon 1AQ30D
Method in brief: (§1)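 Replicon cells seeded in 5% FBS; compounds added 24 h later, then 3 days' incubation. Replicon RNA quantified by real-time RT-PCR with genotype-specific primers/probes (NS5B amplicon for 1b). EC50 = concentration raising CT by 1 over projected baseline.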

HCV replicon 1B = assay: Cell-based HCV Replicon Assay B, replicon 1B
Method in brief: as §1

HCV replicon 2B = assay: Cell-based HCV Replicon Assay A, replicon 2B; conditions: for IC50: Hepatitis C virus, read-out: 2B IC50 (nM), replicon 2B; for pIC50: read-out: 2B IC50, replicon 2B
Method in brief: (§2)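 Replicon cells were seeded at 2000 cells/well with test compound in 10 serial dilutions, starting at 333.3 nM to 1.667 nM, in 0.5% DMSO and 5% FBS. On day 3, cells were washed and lysed, and replicon RNA was quantified by multiplex TaqMan RT-PCR normalised to cyclophilin.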

HCV replicon 1A = assay: Cell-based HCV Replicon Assay A, replicon 1A
Method in brief: as §2

HCV replicon 1AY93H = assay: Cell-based HCV Replicon Assay A, replicon 1AY93H; conditions: for IC50: Hepatitis C virus, read-out: 1A Y93H IC50 (nM), replicon 1AY93H; for pIC50: read-out: 1A Y93H IC50, replicon 1AY93H
Method in brief: as §2

Row | Compound | IC50 (HCV replicon 1AQ30D) [nM] | pIC50 (HCV replicon 1B; Hepatitis C virus) | IC50 (HCV replicon 2B) [nM] | pIC50 (HCV replicon 1A; Hepatitis C virus) | IC50 (HCV replicon 1AY93H) [nM] | pIC50 (HCV replicon 2B) | pIC50 (HCV replicon 1AY93H) | pIC50 (HCV replicon 1AQ30D) | pIC50 (HCV replicon 1B) | pIC50 (HCV replicon 1A)
1 | COC(=O)N[C@H](C(=O)N1CCC[C@H]1c1ncc(-c2cc(F)c3c(c2)OC(c2cnc(C(C)C)s2)n2c-3cc3cc(-c4cnc([C@@H]5C[C@H]6C[C@H]6N5C(=O)[C@@H](NC(=O)OC)C(C)C)[nH]4)ccc32)[nH]1)C(C)C (single isomer, unassigned) [Compound 89] | 0.081 | 11.52 | 0.029 | 11.77 | 0.0028 | – | – | – | – | –
2 | CCCc1ncc(C2Oc3cc(-c4cnc([C@@H]5CCCN5C(=O)[C@@H](NC(=O)OC)C(C)C)[nH]4)cc(F)c3-c3cc4cc(-c5cnc([C@@H]6C[C@H]7C[C@H]7N6C(=O)[C@@H](NC(=O)OC)C(C)C)[nH]5)ccc4n32)s1 (single isomer, unassigned) [Compound 90] | 0.09 | 11.52 | – | 11.60 | – | 10.74 | 11.42 | – | – | –
3 | CCc1ncc(C2Oc3cc(-c4cnc([C@@H]5CCCN5C(=O)[C@@H](NC(=O)OC)C(C)C)[nH]4)cc(F)c3-c3cc4cc(-c5cnc([C@@H]6C[C@H]7C[C@H]7N6C(=O)C(NC(=O)OC)C6CCOC(C)(C)C6)[nH]5)ccc4n32)s1 (single isomer, unassigned) [Compound 92] | – | 11.22 | – | 11.43 | – | 11.30 | 11.35 | 10.19 | – | –
4 | CCc1ncc(C2Oc3cc(-c4cnc([C@@H]5CCCN5C(=O)[C@@H](NC(=O)OC)C(C)C)[nH]4)cc(F)c3-c3cc4cc(-c5cnc([C@@H]6C[C@H]7C[C@H]7N6C(=O)C(NC(=O)OC)C6CCOC(C)(C)C6)[nH]5)ccc4n32)s1 (single isomer, unassigned) [Compound 93] | – | – | – | – | – | 10.16 | 10.37 | 9.20 | 11.52 | 11.44
5 | CCc1ncc(C2Oc3cc(-c4cnc([C@@H]5CCCN5C(=O)[C@@H](NC(=O)OC)C(C)C)[nH]4)cc(F)c3-c3cc4cc(-c5cnc([C@@H]6C[C@H]7C[C@H]7N6C(=O)C(NC(=O)OC)C6CCOC(C)(C)C6)[nH]5)ccc4n32)s1 (single isomer, unassigned) [Compound 94] | – | – | – | – | – | 11.40 | 11.46 | 10.35 | 11.52 | 11.52
6 | CCc1ncc(C2Oc3cc(-c4cnc([C@@H]5CCCN5C(=O)[C@@H](NC(=O)OC)C(C)C)[nH]4)cc(F)c3-c3cc4cc(-c5cnc([C@@H]6C[C@H]7C[C@H]7N6C(=O)C(NC(=O)OC)C6CCOC(C)(C)C6)[nH]5)ccc4n32)s1 (single isomer, unassigned) [Compound 95] | – | – | – | – | – | 10.07 | 10.43 | 9.48 | 11.30 | 11.54
7 | CCc1ncc(C2Oc3cc(-c4cnc([C@@H]5CCCN5C(=O)[C@@H](NC(=O)OC)C(C)C)[nH]4)cc(F)c3-c3cc4cc(-c5cnc([C@@H]6C[C@H]7C[C@H]7N6C(=O)[C@@H](NC(=O)OC)C6C[C@@H](C)O[C@@H](C)C6)[nH]5)ccc4n32)s1 (single isomer, unassigned) [Compound 96] | – | 11.52 | – | 11.62 | – | 11.22 | 11.43 | 10.70 | – | –
8 | CCc1ncc(C2Oc3cc(-c4cnc([C@@H]5CCCN5C(=O)[C@@H](NC(=O)OC)C(C)C)[nH]4)cc(F)c3-c3cc4cc(-c5cnc([C@@H]6C[C@H]7C[C@H]7N6C(=O)[C@@H](NC(=O)OC)C6C[C@@H](C)O[C@@H](C)C6)[nH]5)ccc4n32)s1 (single isomer, unassigned) [Compound 97] | – | – | – | – | – | 10.01 | 10.56 | 9.54 | 11.52 | 11.60
9 | CCCc1ncc(C2Oc3cc(-c4cnc([C@@H]5CCCN5C(=O)[C@@H](NC(=O)OC)C(C)C)[nH]4)cc(F)c3-c3cc4cc(-c5cnc([C@@H]6C[C@H]7C[C@H]7N6C(=O)C(NC(=O)OC)C6CCOC(C)(C)C6)[nH]5)ccc4n32)s1 (single isomer, unassigned) [Compound 104] | – | 11.52 | – | 11.55 | – | 11.40 | 11.39 | 10.55 | – | –
10 | CCCc1ncc(C2Oc3cc(-c4cnc([C@@H]5CCCN5C(=O)[C@@H](NC(=O)OC)C(C)C)[nH]4)cc(F)c3-c3cc4cc(-c5cnc([C@@H]6C[C@H]7C[C@H]7N6C(=O)C(NC(=O)OC)C6CCOC(C)(C)C6)[nH]5)ccc4n32)s1 (single isomer, unassigned) [Compound 106] | – | – | – | – | – | 10.17 | 10.47 | 9.55 | 11.30 | 11.49
11 | CCCc1ncc(C2Oc3cc(-c4cnc([C@@H]5CCCN5C(=O)[C@@H](NC(=O)OC)C(C)C)[nH]4)cc(F)c3-c3cc4cc(-c5cnc([C@@H]6C[C@H]7C[C@H]7N6C(=O)C(NC(=O)OC)C6CCOC(C)(C)C6)[nH]5)ccc4n32)s1 (single isomer, unassigned) [Compound 107] | – | – | – | – | – | 10.77 | 10.53 | 9.63 | 11.40 | 11.59
12 | CCCc1ncc(C2Oc3cc(-c4cnc([C@@H]5CCCN5C(=O)[C@@H](NC(=O)OC)C(C)C)[nH]4)cc(F)c3-c3cc4cc(-c5cnc([C@@H]6C[C@H]7C[C@H]7N6C(=O)C(NC(=O)OC)C6C[C@@H](C)O[C@@H](C)C6)[nH]5)ccc4n32)s1 (single isomer, unassigned) [Compound 108] | – | 11.40 | – | 11.55 | – | 11.15 | 11.48 | 10.80 | – | –
13 | CCCc1ncc(C2Oc3cc(-c4cnc([C@@H]5CCCN5C(=O)[C@@H](NC(=O)OC)C(C)C)[nH]4)cc(F)c3-c3cc4cc(-c5cnc([C@@H]6C[C@H]7C[C@H]7N6C(=O)C(NC(=O)OC)C6C[C@@H](C)O[C@@H](C)C6)[nH]5)ccc4n32)s1 (single isomer, unassigned) [Compound 109] | – | – | – | – | – | 10.16 | 10.52 | 9.75 | 11.40 | 11.47
14 | COC(=O)NC(C(=O)N1[C@@H]2C[C@@H]2C[C@H]1c1ncc(-c2ccc3c(c2)cc2n3C(c3cnc(C4CC4)s3)Oc3cc(-c4cnc([C@@H]5CC6CC6N5C(=O)[C@@H](NC(=O)OC)C(C)C)[nH]4)cc(F)c3-2)[nH]1)C1CCOC(C)(C)C1 (single isomer, unassigned) [Compound 110] | 0.027 | 11.40 | 0.007 | 11.48 | 0.003 | – | – | – | – | –
15 | COC(=O)NC(C(=O)N1[C@@H]2C[C@@H]2C[C@H]1c1ncc(-c2ccc3c(c2)c(F)c2n3C(c3cnc(C4CC4)s3)Oc3cc(-c4cnc([C@@H]5CCCN5C(=O)[C@@H](NC(=O)OC)C(C)C)[nH]4)cc(F)c3-2)[nH]1)C1CCOC(C)(C)C1 (single isomer, unassigned) [Compound 112] | 0.036 | 11.52 | – | 11.72 | – | 11.40 | 11.36 | – | – | –
16 | COC(=O)N[C@H](C(=O)N1CCC[C@H]1c1ncc(-c2cc(C)c3c(c2)OC(c2cnc(C4CC4)s2)n2c-3cc3cc(-c4cnc([C@@H]5CCCN5C(=O)[C@@H](NC(=O)OC)C(C)C)[nH]4)ccc32)[nH]1)C(C)C (single isomer, unassigned) [Compound 200] | 0.961 | 11.52 | 0.014 | 11.31 | 0.0796 | – | – | – | – | –
17 | COC(=O)N[C@H](C(=O)N1CCC[C@H]1c1ncc(-c2cc(C)c3c(c2)OC(c2cnc(C4CC4)s2)n2c-3cc3cc(-c4cnc([C@@H]5C[C@H]6C[C@H]6N5C(=O)[C@@H](NC(=O)OC)C(C)C)[nH]4)ccc32)[nH]1)C(C)C (single isomer, unassigned) [Compound 203] | 0.654 | 11.52 | 0.007 | 11.35 | 0.0166 | – | – | – | – | –
